In ChEMBL document CHEMBL1144070, “Microbial transformation of sampangine” (1999):
In brackets after ≈: the same amount, converted by molar mass. Activity calls are given as the source filed them. The rule behind the calls is not given here.

What was measured:
[1] = tested on: Cryptococcus neoformans; experiment: Antifungal activity against Cryptococcus neoformans ATCC 52657 after 48 hrs by agar well diffusion method; assay type: functional; conditions: ATCC 52657, 48 h
[2] = tested on: Candida albicans; experiment: Antifungal activity against Candida albicans NIH B311 after 24 hrs by agar well diffusion method; assay type: functional
[3] = tested on: Cryptococcus neoformans; experiment: Antifungal activity against Cryptococcus neoformans infected in Swiss ICR mouse assessed as lethality at 50 mg/kg, ip administered 24 hrs post infection for 12 days; assay type: functional, organism-based; set-up: dose 50 mg/kg

SMILES	MIC [1] [µg/mL]	Activity [2]	Activity [3]	MIC [2] [µg/mL]
CO[C@H]1[C@H](O)[C@@H](O)[C@H](Oc2c3c4c(ccnc4c4ccccc24)C=CN3)O[C@@H]1CO	0.2 (≈ 0.487 µM)	inactive		
OC[C@H]1O[C@@H](Oc2c3c4c(ccnc4c4ccccc24)C=CN3)[C@H](O)[C@@H](O)[C@@H]1O	0.78 (≈ 1.97 µM)	inactive	inactive	
O=C1c2ccccc2-c2nccc3ccnc1c23 [SAMPANGINE]	0.2 (≈ 0.861 µM)			3.12 (≈ 13.4 µM)
